Laboratory results published in patent US10499645B2, “Nematicidal aqueous suspension concentrate compositions” (Monsanto Technology LLC, priority 2012, dated 2019).

Key:
Assay type in all cases: physicochemical
[1] = Non-competitive slurry experiments (XRD); conditions: ambient temperature
Procedure: In addition to the solvent recrystallization experiments, non-competitive slurry experiments were performed to search for new solid-state forms of 3-phenyl-5-(thiophen-2-yl)-1,2,4-oxadiazole. These experiments rely on solubility differences of different polymorphic forms (if the compound exists in different polymorphic forms).
Essentially, when a solid is mixed with solvent to create slurry, a saturated solution eventually results. The solution is saturated with respect to the polymorphic form dissolved. […] In addition, noncompetitive slurry experiments are often useful in identifying solvents that form solvates with the compound.
The slurry experiments were performed by exposing excess supplied material to solvents and agitating the resulting suspensions for several days at ambient temperature. The solids were filtered using a WHATMAN Grade 1 apparatus (11 μm pore size) and analyzed by XRD to determine the resulting form(s). To avoid possible desolvation or physical change after isolation, the samples were not dried before X-ray analysis.

[2] = Grinding analysis (ball mill, XRD); conditions: ball mill 2 minutes at 4800 oscillations per minute
Procedure: Batches of 3-phenyl-5-(thiophen-2-yl)-1,2,4-oxadiazole polymorphic Forms I and II were ground using a CRESCENT WIG-L-BUG ball mill for 2 minutes at 4800 oscillations per minute (3.2 m/s) in two separate experiments. […] The Form II used in this experiment was obtained by recrystallization from the melt of Form I, as described in Example 14, above, […]

[3] = Mechanical pressure analysis (CARVER press, XRD); conditions: approximately 15,000 psi for approximately 20 seconds
Procedure: Batches of 3-phenyl-5-(thiophen-2-yl)-1,2,4-oxadiazole polymorphic Forms I and II were placed in a CARVER press and compressed at approximately 15,000 psi for approximately 20 seconds in two separate experiments. XRD analysis was performed on the samples. The resulting XRD pattern matched the starting material in both experiments, as shown in FIGS. 5A and 5B for Forms I and II, respectively. […] The Form II used in this experiment was obtained by recrystallization from the melt of Form I, as described in Example 14, above.

[4] = Storage stability of polymorphs (XRD)

| form resulting from slurry experiments (summary) ([1]; approximately 12 days of slurring) | polymorphic transformation on grinding [2] | form resulting from slurry experiments (summary) ([1]; approximately 7 days of slurring) | storage stability (XRD) ([4]; scintillation vial in a hood, ambient conditions, approximately 6 days) | Structure (SMILES) | change of polymorphic form under pressure [3] | storage stability / hydrate formation (XRD) ([4]; 75 and 84% RH, ambient temperature, 4 weeks, open Petri dishes) |
| --- | --- | --- | --- | --- | --- | --- |
| Form I | no transformation |  |  | c1ccc(-c2noc(-c3cccs3)n2)cc1 [Form I, 3-phenyl-5-(thiophen-2-yl)-1,2,4-oxadiazole] | did not reveal any changes in the polymorphic form | does not form a hydrate and appears to be thermodynamically stable over time at ambient conditions |
|  | transformed to Form I | Form I | showed signs of transformation to Form I | c1ccc(-c2noc(-c3cccs3)n2)cc1 [Form II, 3-phenyl-5-(thiophen-2-yl)-1,2,4-oxadiazole] | did not reveal any changes in the polymorphic form |  |
